{"source": "patent US20070293698A1", "about": "“Compositions of Allosteric Hemoglobin Modifiers and Methods of Making the Same” (ALLOS THERAPEUTICS, INC., priority 2004, published 2007)", "origin": "cited, not measured here", "key": {"[1]": {"molecular_target": "hemoglobin (Homo sapiens, UniProt P68871+P69905)", "sequence (P69905 2-142 limits assumed)": "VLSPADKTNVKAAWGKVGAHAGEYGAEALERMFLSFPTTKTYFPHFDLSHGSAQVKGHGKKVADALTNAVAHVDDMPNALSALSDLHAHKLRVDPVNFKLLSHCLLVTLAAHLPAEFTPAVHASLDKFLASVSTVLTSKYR", "sequence (P68871 2-147 limits assumed)": "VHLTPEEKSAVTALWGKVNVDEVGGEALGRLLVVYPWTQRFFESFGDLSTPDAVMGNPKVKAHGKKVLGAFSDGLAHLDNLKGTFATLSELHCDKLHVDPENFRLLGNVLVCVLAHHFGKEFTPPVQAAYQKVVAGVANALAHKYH", "settings": "in vivo"}, "[2]": {"tested_on": "Lewis lung carcinoma", "settings": "mice bearing the Lewis lung carcinoma; Teicher 1996"}, "[3]": {"tested_on": "EMT6 mouse mammary tumors", "settings": "efaproxiral plus oxygen breathing, Rockwell and Kelley 1998"}, "[4]": {"tested_on": "mouse fibrosarcoma tumor", "settings": "combination of efaproxiral and radiation relative to radiation alone; Teicher 1996, Khandelwal 1996"}}}
{"compound": "Cc1cc(C)cc(NC(=O)Cc2ccc(OC(C)(C)C(=O)O)cc2)c1", "note": "[efaproxiral, 2-[4-((((3,5-dimethylphenyl)amino)carbonyl)methyl)phenoxy]-2-methyl propionic acid]", "values": [{"measurement": "tissue oxygenation", "setting": "[1]", "value": "enhance tissue oxygenation in vivo"}, {"measurement": "effect on fractionated radiation therapy", "setting": "[2]", "value": "enhance fractionated radiation therapy"}, {"measurement": "effect of radiation in tumors", "setting": "[3]; EMT6 tumors", "value": "Enhancement of the effect of radiation was observed"}, {"measurement": "radiation effects in normal tissues", "setting": "[3]; normal tissues", "value": "absence of enhanced radiation effects in normal tissues"}, {"measurement": "tumor growth", "setting": "[4]", "value": "tumor growth has been shown to be reduced"}]}
